Legend:
Assay type in all cases: cell-based
[1] = target: EP2 subtype of the human PGE2 receptor (Homo sapiens, UniProt P43116); experiment: cAMP antagonism test on the human EP2 receptor (HTRF cAMP detection); settings: hEP2 receptor, read-out: Antagonism hEP2 IC50
How it was run: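 Cells expressing human EP2 preincubated 20 min at RT with compound (0.8 nM–16.5 μM), then stimulated 60 min with PGE2 (3× solution 1.5 nM) in PBS-IBMX. After 20 min lysis, cAMP measured by competitive HTRF with cAMP-d2 and Eu cryptate anti-cAMP antibody (665/620 nm ratio).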

[2] = target: T1, human PGD receptor (Homo sapiens, UniProt Q13258); experiment: cAMP antagonism test on the human prostaglandin D receptor (HTRF cAMP detection); settings: selectivity towards hDP, IC50 measured by cAMP antagonism test
T1 sequence (Q13258 1-359): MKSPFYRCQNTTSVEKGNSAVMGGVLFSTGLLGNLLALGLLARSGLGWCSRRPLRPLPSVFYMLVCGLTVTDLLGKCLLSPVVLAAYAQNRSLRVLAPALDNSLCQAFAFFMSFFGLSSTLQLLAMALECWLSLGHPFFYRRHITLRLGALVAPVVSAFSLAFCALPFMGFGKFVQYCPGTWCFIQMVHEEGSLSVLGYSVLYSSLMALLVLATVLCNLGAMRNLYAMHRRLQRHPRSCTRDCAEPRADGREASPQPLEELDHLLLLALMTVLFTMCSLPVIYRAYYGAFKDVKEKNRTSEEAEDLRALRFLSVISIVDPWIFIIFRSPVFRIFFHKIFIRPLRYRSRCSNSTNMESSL
How it was run: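 Cells pre-mixed with cAMP-d2 were preincubated with compound (0.8 nM–16.5 μM) for 20 min at RT, then stimulated with 3× PGD2 solution (6 nM, in PBS-IBMX) for 30 min at RT. After lysis (20 min), HTRF read at 665/620 nm; antagonism seen as rise in FRET ratio.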

[3] = target: EP4 subtype of the human PGE2 receptor (Homo sapiens, UniProt P35408); experiment: cAMP antagonism test on the human EP4 receptor (HTRF cAMP detection); settings: selectivity towards hEP4, IC50 measured by cAMP antagonism test
Sequence of EP4 subtype of the human PGE2 receptor (P35408 whole entry): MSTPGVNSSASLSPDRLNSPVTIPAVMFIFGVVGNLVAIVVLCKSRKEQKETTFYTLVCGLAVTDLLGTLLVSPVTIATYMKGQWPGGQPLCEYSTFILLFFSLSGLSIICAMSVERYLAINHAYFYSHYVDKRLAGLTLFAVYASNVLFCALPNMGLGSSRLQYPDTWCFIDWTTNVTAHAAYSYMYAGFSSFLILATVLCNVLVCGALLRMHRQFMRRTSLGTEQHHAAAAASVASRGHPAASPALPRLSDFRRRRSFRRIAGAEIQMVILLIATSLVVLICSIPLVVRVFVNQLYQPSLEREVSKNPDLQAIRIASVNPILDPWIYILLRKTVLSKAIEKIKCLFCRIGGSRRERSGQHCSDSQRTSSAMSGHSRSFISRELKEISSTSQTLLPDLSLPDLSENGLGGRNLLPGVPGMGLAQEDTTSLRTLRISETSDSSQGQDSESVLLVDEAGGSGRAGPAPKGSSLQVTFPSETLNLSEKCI
How it was run: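 Cells expressing human EP4 preincubated 20 min at RT with compound (0.8 nM–16.5 μM), then stimulated with PGE2 (0.3 nM in 3× solution, with IBMX) 60 min at RT. After lysis, cAMP measured by HTRF competition (665/620 nm ratio); antagonism seen as rise in FRET signal.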

Sequence of EP2 subtype of the human PGE2 receptor (P43116 whole entry): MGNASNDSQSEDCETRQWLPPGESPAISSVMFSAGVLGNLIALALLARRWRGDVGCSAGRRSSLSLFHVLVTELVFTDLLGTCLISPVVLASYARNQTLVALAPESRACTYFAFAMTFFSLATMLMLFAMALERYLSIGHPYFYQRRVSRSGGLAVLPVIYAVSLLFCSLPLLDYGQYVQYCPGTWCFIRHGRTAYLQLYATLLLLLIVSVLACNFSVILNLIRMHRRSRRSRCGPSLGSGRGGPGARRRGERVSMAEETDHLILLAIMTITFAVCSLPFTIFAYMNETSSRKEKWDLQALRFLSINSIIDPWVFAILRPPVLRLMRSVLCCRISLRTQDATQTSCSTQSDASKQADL

SMILES	IC50 [1] [nM]	Selectivity hEP2/hDP [2]	Selectivity hEP2/hEP4 [3]
Cc1c(C(=O)NCC(F)(F)F)ccc2nn(CC3CCN(C(=O)c4nc5ccccc5s4)CC3)cc12 [Example 302, 2-{[1-(benzothiazol-2-ylcarbonyl)piperidin-4-yl]methyl}-4-methyl-N-(2,2,2-trifluoroethyl)-2H-indazol-5-carboxamide]	131	xxx (xxx > 100)	xxx (xxx > 100)
Cc1c(C(=O)NCC(F)(F)F)ccc2nn(CC3CCN(C(=O)c4ccc(Oc5cccc(C(F)(F)F)n5)cc4)CC3)cc12 [Example 304, 4-methyl-N-(2,2,2-trifluoroethyl)-2-{[1-(4-{[6-(trifluoromethyl)pyridin-2-yl]-oxy}benzoyl)piperidin-4-yl]methyl}-2H-indazol-5-carboxamide]	99.8	xxx (xxx > 100)	xxx (xxx > 100)
Cc1c(C(=O)NCC(F)(F)F)ccc2nn(CC3CCN(C(=O)c4nc(-c5ccccc5)no4)CC3)cc12 [Example 305, 4-methyl-2-({1-[(3-phenyl-1,2,4-oxadiazol-5-yl)carbonyl]piperidin-4-yl}methyl)-N-(2,2,2-trifluoroethyl)-2H-indazol-5-carboxamide]	301	xx (xx: 10-100)	xx (xx: 10-100)
Cc1c(C(=O)NCC(F)(F)F)ccc2nn(CC3CCN(C(=O)c4ccc(Oc5ccc(C#N)cc5)cc4)CC3)cc12 [Example 306, 2-({1-[4-(4-cyanophenoxy)benzoyl]piperidin-4-yl}methyl)-4-methyl-N-(2,2,2-trifluoroethyl)-2H-indazol-5-carboxamide]	76.6	xxx (xxx > 100)	xxx (xxx > 100)
Cc1c(C(=O)NCC(F)(F)F)ccc2nn(CC3CCN(C(=O)c4ccc(Oc5cccc(F)c5)cc4)CC3)cc12 [Example 307, 2-({1-[4-(3-fluorophenoxy)benzoyl]piperidin-4-yl}methyl)-4-methyl-N-(2,2,2-trifluoroethyl)-2H-indazol-5-carboxamide]	30.6	xxx (xxx > 100)	xxx (xxx > 100)
Cc1c(C(=O)NCC(F)(F)F)ccc2nn(CC3CCN(C(=O)c4ccc(Oc5cccc(C(F)(F)F)c5)cc4)CC3)cc12 [Example 308, 4-methyl-N-(2,2,2-trifluoroethyl)-2-[(1-{4-[3-(trifluoromethyl)phenoxy]-benzoyl}piperidin-4-yl)methyl]-2H-indazol-5-carboxamide]	22.2	xxx (xxx > 100)	xxx (xxx > 100)
Cc1c(C(=O)NCC(F)(F)F)ccc2nn(CC3CCN(C(=O)c4ncc(-c5ccccc5)o4)CC3)cc12 [Example 309, 4-methyl-2-({1-[(5-phenyloxazol-2-yl)carbonyl]piperidin-4-yl}methyl)-N-(2,2,2-trifluoroethyl)-2H-indazol-5-carboxamide]	66	xxx (xxx > 100)	xxx (xxx > 100)
Cc1c(C(=O)NCC(F)(F)F)ccc2nn(CC3CCN(C(=O)c4ccc(Oc5ccc(C#N)cn5)cc4)CC3)cc12 [Example 310, 2-[(1-{4-[(5-cyanopyridin-2-yl)oxy]benzoyl}piperidin-4-yl)methyl]-4-methyl-N-(2,2,2-trifluoroethyl)-2H-indazol-5-carboxamide]	806	xx (xx: 10-100)	xx (xx: 10-100)
Cc1c(C(=O)NCC(F)(F)F)ccc2nn(CC3CCN(C(=O)c4ccc(Oc5ccc(Cl)cn5)cc4)CC3)cc12 [Example 311, 2-[(1-{4-[(5-chloropyridin-2-yl)oxy]benzoyl}piperidin-4-yl)methyl]-4-methyl-N-(2,2,2-trifluoroethyl)-2H-indazol-5-carboxamide]	84.1	xxx (xxx > 100)	xxx (xxx > 100)
Cc1c(C(=O)NCC(F)(F)F)ccc2nn(CC3CCN(C(=O)c4ccc(-c5ccc(C(F)(F)F)cn5)cc4)CC3)cc12 [Example 312, 4-methyl-N-(2,2,2-trifluoroethyl)-2-[(1-{4-[5-(trifluoromethyl)pyridin-2-yl]-benzoyl}piperidin-4-yl)methyl]-2H-indazol-5-carboxamide]	158	xxx (xxx > 100)	xxx (xxx > 100)
Cc1c(C(=O)NCC(F)(F)F)ccc2nn(CC3CCN(C(=O)c4ccc(Oc5ccc(F)cc5F)cc4)CC3)cc12 [Example 313, 2-({1-[4-(2,4-difluorophenoxy)benzoyl]piperidin-4-yl}methyl)-4-methyl-N-(2,2,2-trifluoroethyl)-2H-indazol-5-carboxamide]	89.4	xxx (xxx > 100)	xxx (xxx > 100)
Cc1c(C(=O)NCC(F)(F)F)ccc2nn(CC3CCN(C(=O)c4ccc(Oc5ccc(F)c(F)c5)cc4)CC3)cc12 [Example 314, 2-({1-[4-(3,4-difluorophenoxy)benzoyl]piperidin-4-yl}methyl)-4-methyl-N-(2,2,2-trifluoroethyl)-2H-indazol-5-carboxamide]	27.8	xxx (xxx > 100)	xxx (xxx > 100)
Cc1c(C(=O)NCC(F)(F)F)ccc2nn(CC3CCN(C(=O)c4ccc(-c5ccc(C(F)(F)F)cc5)cc4)CC3)cc12 [Example 315, 4-methyl-N-(2,2,2-trifluoroethyl)-2-[(1-{[4′-(trifluoromethyl)biphenyl-4-yl]-carbonyl}piperidin-4-yl)methyl]-2H-indazol-5-carboxamide]	43	xxx (xxx > 100)	xxx (xxx > 100)
Cc1c(C(=O)NCC(F)(F)F)ccc2nn(CC3CCN(C(=O)c4ccc(Br)cc4)CC3)cc12 [Example 316, 2-{[1-(4-bromobenzoyl)piperidin-4-yl]methyl}-4-methyl-N-(2,2,2-trifluoro-ethyl)-2H-indazol-5-carboxamide]	79	xxx (xxx > 100)	xxx (xxx > 100)
Cc1c(C(=O)NCC(F)(F)F)ccc2nn(CC3CCN(C(=O)c4ccc(-c5ccc(Cl)cn5)cc4)CC3)cc12 [Example 317, 2-({1-[4-(5-chloropyridin-2-yl)benzoyl]piperidin-4-yl}methyl)-4-methyl-N-(2,2,2-trifluoroethyl)-2H-indazol-5-carboxamide]	181	xx (xx: 10-100)	xx (xx: 10-100)
COc1ccc(-c2ccc(C(=O)N3CCC(Cn4cc5c(C)c(C(=O)NCC(F)(F)F)ccc5n4)CC3)cc2)c(C)c1 [Example 318, 2-({1-[(4′-methoxy-2′-methylbiphenyl-4-yl)carbonyl]piperidin-4-yl}methyl)-4-methyl-N-(2,2,2-trifluoroethyl)-2H-indazol-5-carboxamide]	26.3	xxx (xxx > 100)	xxx (xxx > 100)
Cc1ccc(-c2ccc(C(=O)N3CCC(Cn4cc5c(C)c(C(=O)NCC(F)(F)F)ccc5n4)CC3)cc2)cn1 [Example 319, 4-methyl-2-({1-[4-(6-methylpyridin-3-yl)benzoyl]piperidin-4-yl}methyl)-N-(2,2,2-trifluoroethyl)-2H-indazol-5-carboxamide]	315	xx (xx: 10-100)	xx (xx: 10-100)
COc1cc(F)ccc1-c1ccc(C(=O)N2CCC(Cn3cc4c(C)c(C(=O)NCC(F)(F)F)ccc4n3)CC2)cc1 [Example 320, 2-({1-[(4′-fluoro-2′-methoxybiphenyl-4-yl)carbonyl]piperidin-4-yl}methyl)-4-methyl-N-(2,2,2-trifluoroethyl)-2H-indazol-5-carboxamide]	15.6	xxx (xxx > 100)	xxx (xxx > 100)
Cc1c(C(=O)NCC(F)(F)F)ccc2nn(CC3CCN(C(=O)c4ccc(-c5ccc(C(F)(F)F)nc5)cc4)CC3)cc12 [Example 321, 4-methyl-N-(2,2,2-trifluoroethyl)-2-[(1-{4-[6-(trifluoromethyl)pyridin-3-yl]-benzoyl}piperidin-4-yl)methyl]-2H-indazol-5-carboxamide]	101	xxx (xxx > 100)	xxx (xxx > 100)
COc1ccc(-c2ccc(C(=O)N3CCC(Cn4cc5c(C)c(C(=O)NCC(F)(F)F)ccc5n4)CC3)cc2)cn1 [Example 322, 2-({1-[4-(6-methoxypyridin-3-yl)benzoyl]piperidin-4-yl}methyl)-4-methyl-N-(2,2,2-trifluoroethyl)-2H-indazol-5-carboxamide]	76.2	xxx (xxx > 100)	xxx (xxx > 100)

— patent US9062041B2 (Bayer Intellectual Property GmbH, priority 2011, dated 2015)
